Like-named read-outs stand apart in the source and are kept apart here.
Biological target: M^pro protein (SARS-CoV-2 main protease) (Severe acute respiratory syndrome coronavirus 2, UniProt P0DTD1)
Assay: FRET-based in vitro enzymatic inhibition assay
Assay type: biochemical
[1] = 0.2 μM M^pro, 20 μM substrate MCA-[…]-Lys(Dnp)-Lys-NH2, 30 min preincubation at 37 °C, read-out: IC50 Value

Structure (SMILES)	IC50 [1] [µM]	IC50 [µM]
CC(=O)Nc1ccc(-c2ccc(C(=O)N[C@H](C(=O)Nc3ccc(Cl)c(C(F)(F)F)c3)C(C)(C)C)cc2)cn1 [Compound V231]	> 20	–
Nc1n[nH]c2cccc(-c3ccc(C(=O)NCCNC(=O)c4ccc(Br)cc4)cc3)c12 [Compound V111]	> 20	–
Nc1n[nH]c2cccc(-c3ccc(C(=O)N4CCN(C(=O)c5cccc(F)c5)CC4)cc3)c12 [Compound V205]	> 20	–
CCN(CC)C(=O)c1cncc(-c2cccc(C(=O)N[C@@H](C(=O)Nc3ccc(Cl)c(C(F)(F)F)c3)C(C)(C)C)c2)c1 [Compound V226]	> 20	–
Cc1cn(-c2cc(NC(=O)c3ccc(C)c(Nc4nccc(-c5cccnc5)n4)c3)cc(C(F)(F)F)c2)cn1 [Nilotinib, reference compound]	–	19.9 ± 1.27
CCC(=O)Nc1ccc(-c2cccc(C(=O)N[C@@H]3CN[C@H](C(=O)Nc4ccc(Cl)c(C(F)(F)F)c4)C3)c2)cn1 [Compound V139]	> 20	–
O=C(c1ccc(-c2cc(Nc3ccc(Cl)cc3Cl)ncn2)cc1)N1CCN(C(=O)c2ccccc2F)CC1 [Compound V159]	> 20	–
CC(C)(C)OCC(NC(=O)c1ccc(-c2cncc(C(=O)NC3CC3)c2)cc1)C(=O)Nc1ccc(Cl)c(C(F)(F)F)c1 (stereo not shown) [Compound V243]	> 20	–
Nc1n[nH]c2cc(-c3cn([C@@H]4CN[C@H](C(=O)Nc5ccc(Cl)c(C(F)(F)F)c5)C4)nn3)ccc12 [Compound V291]	2.77 ± 0.56	–
Nc1nc2cc(-c3cn([C@@H]4CN[C@H](C(=O)Nc5ccc(Cl)c(C(F)(F)F)c5)C4)nn3)cnc2s1 [Compound V304]	> 20	–
